Here are results for 13 compounds from patent publication US20260335313A1, “NOVEL CDK9 INHIBITORS” (Origenis GmbH, priority 2022, published 2026).

Usually IC50 stands for the concentration that inhibits the measured activity by half. Lower therefore signals greater potency in that assay.

The target of the assay is T1, CDK9/CyclinT1 (Homo sapiens, UniProt P50750).
T1 construct: purchased ProQinase/Reaction Biology, USA 0371-0345-1
Briefly: CDK9/T1 ADPGlo Activity (ADP Glo Kinase assay, inhibitory activity). The format is biochemical. Particulars: CDK9/CyclinT1 f.c. 6 nM; PDKtide 40 microM; ATP 10 microM; 10 min preincubation, 120 min at RT; 12 concentrations, 1:3 dilution from 5 microM. The procedure: ASSAY PROTOCOL for Determination of Inhibitory Activity
The testing compound was evaluated in 12 concentrations in a 1:3 dilution series, starting from 5microM as the highest concentration.
In a white 384 microplate (Greiner bio-one, Austria #784904,) with 2 microL of 3-fold concentrated CDK9/CyclinT1 (ProQinase/Reaction Biology, USA #0371-0345-1, LOT.: 012), final concentration (f.c.) 6 nM, in 1× kinase buffer, 2 microL of compound (3× fold concentrated in f.c. 1.66% DMSO/H2O) was added and incubated at Room Temperature (RT) for 10 min. Then 2 microL of Substrate/ATP-Mix (3× PDKtide f.c. 40 microM, SignalChem Biotech, Canada via Biozol, Eching, Germany #P10-58, LOT.: L2230-7 and 3× UltraPure ATP f.c. 10 microM (ADP Glo Kinase assay, Promega GmbH, Germany #V9102)) were added, mixed and incubated for 120 min at RT.
After incubation time, 5 microL of ADP Glo reagent (ready to use, ADP Glo Kinase assay, Promega GmbH, Germany #V9102) were added, mixed and incubated for 40 min at RT.
In the last step, 10 microL of ADP Glo Detection reagent (ready to use, ADP Glo Kinase assay, Promega GmbH, Germany #V9102) were added, mixed and incubated for 30 min at RT.
GloMax Discover GM3000 Reader (Promega GmbH, Germany 9700000249) was used for the readout.
The inhibitor concentration was plotted against the luminescence to determine the IC50 using XLFit 5.5 (IDBS, Guildford) to fit to a sigmoidal dose response curve with a variable slope.
(In general: ADP-Glo turns the ADP formed in a reaction into a luminescent signal.)

T1 sequence (P50750 whole entry): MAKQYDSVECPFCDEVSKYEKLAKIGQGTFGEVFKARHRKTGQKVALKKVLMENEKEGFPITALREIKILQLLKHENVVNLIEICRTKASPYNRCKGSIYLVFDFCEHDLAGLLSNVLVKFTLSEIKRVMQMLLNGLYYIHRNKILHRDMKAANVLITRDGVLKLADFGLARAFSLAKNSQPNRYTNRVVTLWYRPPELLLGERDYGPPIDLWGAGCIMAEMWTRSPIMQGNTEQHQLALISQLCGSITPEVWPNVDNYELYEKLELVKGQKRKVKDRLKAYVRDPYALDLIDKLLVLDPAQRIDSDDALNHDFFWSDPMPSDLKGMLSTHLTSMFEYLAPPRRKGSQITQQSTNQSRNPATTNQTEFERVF
T1 sequence (O60563 whole entry partner): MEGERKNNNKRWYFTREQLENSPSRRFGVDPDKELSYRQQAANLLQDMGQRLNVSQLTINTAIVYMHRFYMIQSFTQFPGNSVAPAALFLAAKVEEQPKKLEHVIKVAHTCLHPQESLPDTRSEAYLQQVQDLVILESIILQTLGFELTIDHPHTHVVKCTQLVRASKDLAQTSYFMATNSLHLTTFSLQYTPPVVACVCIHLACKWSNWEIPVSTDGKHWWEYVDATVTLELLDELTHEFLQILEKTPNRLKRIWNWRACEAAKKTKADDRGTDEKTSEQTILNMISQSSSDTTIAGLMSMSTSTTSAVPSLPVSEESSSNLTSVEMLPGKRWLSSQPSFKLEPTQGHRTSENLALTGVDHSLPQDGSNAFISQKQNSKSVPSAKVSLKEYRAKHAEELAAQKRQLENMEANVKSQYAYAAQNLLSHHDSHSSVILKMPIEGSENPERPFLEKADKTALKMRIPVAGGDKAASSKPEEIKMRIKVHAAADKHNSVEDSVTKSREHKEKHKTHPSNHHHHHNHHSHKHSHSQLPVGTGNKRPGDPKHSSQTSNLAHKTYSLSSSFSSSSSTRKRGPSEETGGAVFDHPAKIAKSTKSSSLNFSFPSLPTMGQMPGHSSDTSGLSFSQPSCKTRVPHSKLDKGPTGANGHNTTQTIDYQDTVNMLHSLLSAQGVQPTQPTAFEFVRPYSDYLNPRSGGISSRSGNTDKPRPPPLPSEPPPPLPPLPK

The compound `CN(C)[C@H]1CC[C@H](Nc2cc(-c3c(F)cccc3F)nn3c(Cl)cnc23)CC1` [Example #12, (1r,4r)-N1-(3-chloro-6-(2,6-difluorophenyl)imidazo[1,2-b]pyridazin-8-yl)-N4,N4-dimethylcyclohexane-1,4-diamine] displayed an IC50 of less than 200 nM. The same measure for `CS(=O)(=O)N1CCC(Nc2cc(-c3c(F)cccc3F)nn3c(Cl)cnc23)CC1` [Example #17, 3-chloro-6-(2,6-difluorophenyl)-N-(1-(methylsulfonyl)piperidin-4-yl)imidazo[1,2-b]pyridazin-8-amine]: less than 20 nM; for `CN1CCC(Nc2cc(-c3c(F)cccc3F)nn3c(Cl)cnc23)CC1` [Example #10, 3-chloro-6-(2,6-difluorophenyl)-N-(1-methylpiperidin-4-yl)imidazo[1,2-b]pyridazin-8-amine]: less than 20 nM. The same measure for `CN1CCN([C@H]2CC[C@H](Nc3cc(-c4c(F)cccc4F)nn4c(Cl)cnc34)CC2)CC1` [Example #1, 3-chloro-6-(2,6-difluorophenyl)-N-((1r,4r)-4-(4-methylpiperazin-1-yl)cyclohexyl)imidazo[1,2-b]pyridazin-8-amine]: less than 200 nM. The same measure for `Fc1cccc(F)c1-c1cc(NCc2cccnc2)c2ncc(Cl)n2n1` [Example #4, 3-chloro-6-(2,6-difluorophenyl)-N-(pyridin-3-ylmethyl)imidazo[1,2-b]pyridazin-8-amine]: less than 20 nM. The compound `CC1CN(S(C)(=O)=O)CCC1Nc1cc(-c2c(F)cccc2F)nn2c(Cl)cnc12` (racemic) [Example #14, 3-chloro-6-(2,6-difluorophenyl)-N-(3-methyl-1-(methylsulfonyl)piperidin-4-yl)imidazo[1,2-b]pyridazin-8-amine] gave an IC50 of less than 200 nM.

Turning to `CN1CCC(Nc2cc(-c3c(F)cccc3F)nn3c(Cl)cnc23)C1` (racemic) [Example #18, 3-chloro-6-(2,6-difluorophenyl)-N-(1-methylpyrrolidin-3-yl)imidazo[1,2-b]pyridazin-8-amine], the IC50 was less than 20 nM.

With `NC1CCC(Nc2c(Cl)c(-c3c(F)cccc3F)nn3c(Cl)cnc23)CC1` (stereo not shown) [Example #8, (1r,4r)-N1-(3,7-dichloro-6-(2,6-difluorophenyl)imidazo[1,2-b]pyridazin-8-yl)cyclohexane-1,4-diamine], the IC50 is less than 200 nM.

As for `Fc1cccc(F)c1-c1cc(N[C@H]2CC[C@H](N3CCOCC3)CC2)c2ncc(Cl)n2n1` [Example #11, 3-chloro-6-(2,6-difluorophenyl)-N-((1r,4r)-4-morpholinocyclohexyl)imidazo[1,2-b]pyridazin-8-amine], the IC50 is less than 20 nM. The same measure for `CC1CN(C(=O)OC(C)(C)C)CCC1Nc1cc(-c2c(F)cccc2F)nn2c(Cl)cnc12` (racemic) [Example #16, tert-butyl-4-((3-chloro-6-(2,6-difluorophenyl)imidazo[1,2-b]pyridazin-8-yl)amino)-3-methylpiperidine-1-carboxylate]: less than 200 nM. As to `N[C@H]1CC[C@H](Nc2cc(-c3c(F)cccc3F)nn3c(Cl)cnc23)CC1` [Example #9, (1r,4r)-N1-(3-chloro-6-(2,6-difluorophenyl)imidazo[1,2-b]pyridazin-8-yl)cyclohexane-1,4-diamine], the IC50 is less than 200 nM. Turning to `Cc1cc(C)c(CNc2cc(-c3c(F)cccc3F)nn3c(Cl)cnc23)cn1` [Example #3, 3-chloro-6-(2,6-difluorophenyl)-N-((4,6-dimethylpyridin-3-yl)methyl)imidazo[1,2-b]pyridazin-8-amine], the IC50 was less than 20 nM. As for `CC1CNCCC1Nc1cc(-c2c(F)cccc2F)nn2c(Cl)cnc12` (racemic) [Example #15, 3-chloro-6-(2,6-difluorophenyl)-N-(3-methylpiperidin-4-yl)imidazo[1,2-b]pyridazin-8-amine], the IC50 was less than 200 nM.
